Measurements taken from PubChem BioAssay (NCI).
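Each compound was tested at five concentrations against cells in 96-well plates for 48 hours. TGI denotes the concentration required for complete inhibition of growth.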

How the values were obtained:
Assay in all cases: inhibition of tumour cell growth, NCI panel, 48 h
A549 NSCLC = test system: A549 NSCLC
HS 578T breast = test system: HS 578T breast
OVCAR-5 ovarian = test system: OVCAR-5 ovarian
MDA-MB-231 breast = test system: MDA-MB-231 breast
SR leukemia = test system: SR leukemia
NCI-H226 lung = test system: NCI-H226 lung
COLO 205 colon = test system: COLO 205 colon
ACHN renal = test system: ACHN renal
HCT-116 colon = test system: HCT-116 colon
T-47D breast = test system: T-47D breast

| SMILES | TGI (A549 NSCLC) [µM] | TGI (HS 578T breast) [µM] | TGI (OVCAR-5 ovarian) [µM] | TGI (MDA-MB-231 breast) [µM] | TGI (SR leukemia) [µM] | TGI (NCI-H226 lung) [µM] | TGI (COLO 205 colon) [µM] | TGI (ACHN renal) [µM] | TGI (HCT-116 colon) [µM] | TGI (T-47D breast) [µM] |
| --- | --- | --- | --- | --- | --- | --- | --- | --- | --- | --- |
| O=S1(=O)c2ccccc2N2CCCc3cc(Cl)cc1c32 | > 100 | 84.7 | > 100 | > 100 | > 100 | > 100 | > 100 | > 100 | > 100 | – |
| COc1cc2c(cc1OCCCC(=O)Nc1cc(C(=O)Nc3cc(C(=O)NCCCN(C)C)n(C)n3)n(C)n1)N=CC1CCCN1C2=O (stereo not drawn) | > 100 | – | 37.7 | 39.5 | 26.7 | > 100 | 26.3 | 29.7 | 34 | 53 |
| CCCCCC(C)C[C@H]1CO[C@H](c2ccc[nH]2)N[C@H]1C(=O)OC (stereo partly drawn) | > 100 | > 100 | > 100 | > 100 | – | – | > 100 | > 100 | > 100 | > 100 |
| CC(=O)C(=C(I)I)c1ccccc1 | 56.2 | – | 45.7 | 51.4 | 35.5 | 27.3 | 28.9 | 35.2 | 29.4 | 50.4 |
| Cc1nc2c(Br)cc(Br)cc2c(=O)n1-c1ccccc1N | > 100 | > 100 | > 100 | > 100 | > 100 | 99.6 | 44 | > 100 | 66.9 | – |
| CCN(CC)C(=O)CCCCCCCCC1CO1 (stereo not drawn) | > 100 | > 100 | > 100 | > 100 | > 100 | > 100 | > 100 | > 100 | > 100 | – |
| O=C(CCCC(=O)N1CC(CCl)c2ccc([N+](=O)[O-])cc21)N1CC(CCl)c2ccc([N+](=O)[O-])cc21 (stereo not drawn) | 92.4 | – | > 100 | > 100 | 60.5 | > 100 | > 100 | > 100 | > 100 | > 100 |
| O=C(c1cccs1)N(C(=O)N1CCC(c2ccccc2)CC1)c1ccccc1 | – | > 100 | > 100 | > 100 | – | > 100 | 72.2 | > 100 | > 100 | 93.5 |
| O=C1CSC2(CCN(CCCN3c4ccccc4Sc4ccc(Cl)cc43)CC2)N1 | 23.4 | 51.9 | 24.3 | 18.8 | – | 40.7 | 22.5 | 23.7 | 19.4 | 15.6 |
| CC(Nc1cc(Cl)cc(Cl)c1)c1ccncc1 (stereo not drawn) | > 100 | > 100 | 32.4 | – | – | 25 | 29.8 | 67.6 | 31.6 | > 100 |
| Clc1ccc(OCc2nnc(CCCCCCCCc3nnc(COc4ccc(Cl)cc4Cl)o3)o2)c(Cl)c1 | > 100 | – | > 100 | > 100 | – | > 100 | > 100 | > 100 | > 100 | – |
| C=C[C@H]1CN2CC[C@H]1C[C@@H]2[C@@H](O)c1ccnc2ccccc12 | > 100 | 8.28 | > 100 | > 100 | – | > 100 | > 100 | > 100 | > 100 | > 100 |
